Results: patent US9782522B2, “Compositions and methods for treating and preventing neointimal stenosis” (Yale University, priority 2011, dated 2017)

Columns and labels:
[1] = system: mammary epithelial cells; conditions: cited from earlier work
[2] = doses of 40 mg and 80 mg; cited from earlier work
[3] = system: TGF-β types I and II receptors; conditions: cited from earlier work
[4] = system: TGF-β1-induced smad2/3 nuclear localization; conditions: cited from earlier work
[5] = system: Smad2/3 phosphorylation; conditions: cited from earlier work
[6] = system: let-7 family miRNAs; assay: qRT-PCR let-7 miRNA expression in endothelial cells; assay type: cell-based, human; conditions: normal EC (HUAEC); U0126 at 10 μM
Method: Quantitative PCR analysis of 88 miRNA was performed using Human Cell Differentiation & Development RT^2 Profiler™ PCR Arrays (MAH-103A, QIAGEN) following the manufacturer's protocol. Validation of microRNA array data was performed with the RT^2 miRNA qPCR Assays and RT-PCR Primer Sets according to the manufacturer's instructions (QIAGEN). Primers for human mature let-7a (MPH00001A), let-7b (MPH00002A), let-7c (MPH00003A), let-7d (MPH00004A), let-7e (MPH00005A), let-7f (MPH00006A), let-7g (MPH00007A), mir-98 (MPH00480A), SNORD47 (MPH01660A) were from QIAGEN. Primers for mouse mature let-7a (MPM00483A), let-7b (MPM00484A), let-7c (MPM485A), let-7d (MPM00486A), let-7e (MPM00487A), let-7f (MPM00488A), let-7g (MPM00489A), let-7i (MPM00490A), mir-98 (MPM00875A) were from QIAGEN. Individual miRNA expression was normalized in relation to expression or small nuclear U6B RNA, a commonly used internal control for miRNA quantification assay. PCR amplification consisted of 10 min of an initial denaturation step at 95° C., followed by 45 cycles of PCR at 95° C. for 30 s, 60° C. for 30 s.
Recombinant human FGF2 (R&D) and TGFβ1 (Peprotech) were reconstituted in 0.1% BSA/PBS. U0126 (Sigma), a MEK inhibitor, was reconstituted in DMSO and used at a final concentration of 10 μM. […]

[7] = system: HUAEC; assay: qRT-PCR mRNA expression of TGFβ signaling and Endo-MT markers in endothelial cells; assay type: cell-based, human; conditions: primary EC in vitro following FRS2 knockdown; lentiviral let-7 expression
Excerpt: Human 293T T17 cells (ATCC CRL-11268) were maintained in Dulbecco's modified Eagle's medium (Gibco) with 10% fetal bovine serum (Invitrogen) and penicillinstreptomycin (Gibco). Primary human mammary epithelial cells (HuMEC, Invitrogen), were maintained in HuMEC basal serum free medium with HuMEC supplement (Invitrogen 12754-016) and bovine pituitary extract (Invitrogen 13028-014). Human foreskin cells (ATCC CRL-1079Sk) were maintained in Minimum Essential Medium (ATCC) with 10% fetal bovine serum (Hyclone), β-mercaptoethanol (Sigma), and penicillin-streptomycin (Gibco). Primary human atrial cells (passage 3-5; gift from Y. Qyang, Yale University School of Medicine) were maintained in Dulbecco's modified Eagle's medium (Gibco) with 10% fetal bovine serum (Invitrogen), L-glutamine (Gibco), Sodium pyruvate (Gibco), Non-essential amino acid (Gibco), and penicillin-streptomycin (Gibco). HUAEC (human umbilical artery endothelial cells, passage 5-10, Lonza) were cultured in EBM-2 supplemented with EGM-2-MV bullet kit (Lonza). HUVEC (human umbilical vein endothelial cells, passage 3-7, Yale Vascular Biology and Therapeutics) were cultured in M199 with ECGS, supplemented with 20% FBS (Sigma), L-glutamine (Gibco), and penicillin-streptomycin (Gibco). Culture vessels were coated with 0.1% gelatin (Sigma) for 30 min at 37° C. immediately prior to cell seeding. Primary mouse endothelial cells were isolated from the heart using rat anti-mouse CD31 antibody and Dynabeads (Invitrogen) as previously described (Partovian C, et al. Mol Cell. 32(1):140 (2008)).
RNA was isolated using RNeasy® plus Mini Kit (Qiagen) and converted to cDNA using iScript™ cDNA synthesis kit (Bio-Rad). Quantitative real-time PCR (qRT-PCR) was performed using Bio-Rad […] (Bio-Rad) by mixing equal amount of eDNAs, iQ™ SYBR® Green Supermix (Bio-Rad) and gene specific primers. All reactions were done in a 25 μl reaction volume in duplicate. Data were normalized to endogenous β-actin. Values are expressed as fold change in comparison to control. Mouse TGFβ gene expression was quantified via qRT-PCR with TaqMan® Gene Expression Assays (Mm00441726_m1; Applied Biosystems) and HPRT (Mm00441258_1; Applied Biosystems) as endogenous control followed the manufacturer's recommendation. Quantitative PCR analysis of 84 TGFβ and epithelial to mesenchymal transition (EMT) related genes were performed using Human TGFβ BMP signaling pathway (PAHS-035D, QIAGEN) and Human Epithelial to Mesenchymal Transition (PAHS-090D, QIAGEN) RT^2 Profiler™ PCR Arrays following the manufacturer's protocol. RT^2 Profiler™ PCR arrays were run on a Bio-Rad CFX96 machine (Bio-Rad). Duplicate arrays were run per condition for control and FRS2 knockdown human umbilical arterial endothelial cells (HUAEC). Data analysis was performed using the manufacturer's integrated web-based software package for the PCR Array System using cycle threshold (Ct)-based fold-change calculations.
Recombinant human FGF2 (R&D) and TGFβ1 (Peprotech) were reconstituted in 0.1% BSA/PBS. U0126 (Sigma), a MEK inhibitor, was reconstituted in DMSO and used at a final concentration of 10 μM. SB431542 (Sigma), a TGFBR1 kinase inhibitor, was reconstituted in DMSO and used at a final concentration of 10 μM in cell culture. Actinomycin D (Sigma), a DNA transcription suppressor, was reconstituted in acetone and used at a final concentration of 10 μg/ml in cell culture. […]

Molecule: Cc1cccc(-c2nc(NCc3cccc(C#N)c3)sc2-c2ccc3ncnn3c2)n1 [EW-7203, 3((5-([1,2,4]triazolo[1,5-a]pyridin-6-yl)-4-(6-methylpyridin-2-yl)thiazol-2-ylamino)methyl)benzonitrile]
- Endo-MT [1]: inhibits
- TGF-β1-induced Smad signaling [1]: inhibits

Molecule: Cc1cccc(-c2nn3c(c2-c2ccnc4ccc(C(N)=O)cc24)CCC3)n1 [LY2157299, 4-(2-(6-methylpyridin-2-yl)-5,6-dihydro-4H-pyrrolo[1,2-b]pyrazol-3-yl)quinoline-6-carboxamide]
- Tolerability [2]: well tolerated

Molecule: CCCCc1nc(Cl)c(CO)n1Cc1ccc(-c2ccccc2-c2nnn[nH]2)cc1 [Losartan, (2-butyl-4-chloro-1-{[2′-(1H-tetrazol-5-yl)biphenyl-4-yl]methyl}-1H-imidazol-5-yl)methanol]
- Expression of TGF-β types I and II receptors [3]: downregulate

Molecule: Cc1cccc(-c2[nH]c(C(C)(C)C)nc2-c2ccc3nccnc3c2)n1 [SB525334, 6-[2-(1,1-Dimethylethyl)-5-(6-methyl-2-pyridinyl)-1H-imidazol-4-yl]quinoxaline]
- TGF-β1-induced mRNA expression [4]: inhibits
- TGF-β1-induced smad2/3 nuclear localization [4]: inhibits

Molecule: Cc1cccc(-c2nc(C34CCC(C(N)=O)(CC3)CC4)[nH]c2-c2ccc3c(c2)OCO3)n1 [SM16, 4-(5-(benzo[d][1,3]dioxol-5-yl)-4-(6-methylpyridin-2-yl)-1H-imidazol-2-yl)bicyclo[2.2.2]octane-1-carboxamide]
- TGF-β and activin-induced Smad2/3 phosphorylation [5]: blocks

Molecule: N#CC(=C(/N)Sc1ccccc1N)/C(C#N)=C(\N)Sc1ccccc1N [U0126]
- Expression of let-7 family miRNAs [6]: decrease

Molecule: FGF2: Recombinant human FGF2 (R&D)
- Expression of let-7 family miRNAs [6]: time dependent increase

B1: Let-7b/c: let-7b and let-7c miRNAs expressed from lentivirus vector (pre-let-7b, pre-let-7c) (nucleic acid, listed as Homo sapiens)
chain: GCAUCCGGGUUGAGGUAGUAGGUUGUAUGGUUUAGAGUUACACCCUGGGAGUUAACUGUACAACCUUCUAGCUUUCCUUGGAGC
- Expression of all SMC and mesenchymal markers [7]: declined to pre-FRS2 knockdown levels
- TGFβR1 and SMAD2 expression [7]: fully inhibited
